Calls of active or inactive are those of the source. The rule behind the calls is not given here.
Legend:
Zika virus [1] = assay: Antiviral activity against ZIKV infected in HUVECs pre-infected with virus followed by compound addition and measured after 48 hrs by qRT-PCR analysis; format: functional, organism-based; settings: HUVEC
[2] = Cytotoxicity against HUVECs assessed as reduction in cell viability incubated for 48 hrs by CCK-8 method; format: toxicity, cell-based; settings: human, HUVEC cells
[3] = Selectivity index, ratio of CC50 for HUVECs to EC50 for ZIKA virus infected in HUVECs; format: toxicity; settings: human, HUVEC cells; read-out: Ratio CC50/EC50
Zika virus [4] = assay: Antiviral activity against ZIKV infected in HUVECs at 5 uM pre-infected with virus followed by compound addition and measured after 48 hrs by qRT-PCR analysis relative to control; format: functional; settings: HUVEC
[5] = Cytotoxicity against HUVECs assessed as reduction in cell viability at 5 uM incubated for 48 hrs by CCK-8 method relative to control; format: toxicity, cell-based; settings: human, HUVEC cells, values are per cent of control
Zika virus [6] = assay: Antiviral activity against ZIKV infected in HUVECs assessed as reduction in NS5 protein level measured after 48 hrs by Western blot analysis; format: functional, organism-based; settings: HUVEC, dose 0.625-5 µM
Zika virus [7] = assay: Antiviral activity against ZIKV infected in HUVECs assessed as inhibition of viral replication at 10 uM pretreated with cells for 1 hr followed by viral infection for 1 hr prior to compound washout and measured after 48 hrs post infection by qRT-PCR analysis; format: functional, organism-based; settings: HUVEC, time 2.0 hrs
Zika virus [8] = assay: Antiviral activity against ZIKV infected in HUVECs assessed as inhibition of viral replication at 10 uM incubated for 1 hr with subsequent addition of virus followed by compound washout and measured after 48 hrs post infection by qRT-PCR analysis; format: functional, organism-based; settings: HUVEC
Zika virus [9] = assay: Antiviral activity against ZIKV infected in HUVECs assessed as inhibition of viral replication at 10 uM pre-infected with virus for 1 hr prior to compound addition for 1 hr followed by compound washout and measured after 48 hrs post infection by qRT-PCR analysis; format: functional, organism-based; settings: HUVEC
Zika virus [10] = assay: Antiviral activity against ZIKV infected in HUVECs assessed as reduction in viral attachment to AXL; format: functional, organism-based; settings: HUVEC
Human coronavirus OC43 = assay: Antiviral activity against Human coronavirus OC43 infected in BHK-21 cells assessed as inhibition of viral replication pre-infected with virus for 24 hrs followed by compound addition and measured after 48 hrs by luciferase assay; format: functional, organism-based; settings: Betacoronavirus 1, BHK-21
Influenza A virus = assay: Antiviral activity against influenza A virus infected in HEK293T cells assessed as inhibition of viral replication pre-infected with virus followed by compound addition and measured after 24 hrs by luciferase assay; format: functional, organism-based; settings: HEK-293T
HEK-293T = assay: Cytotoxicity against HEK293T cells assessed as reduction in cell viability at >10 uM measured after 24 hrs by CCK-8 method; format: toxicity, cell-based; settings: human
[11] = Metabolic stability in mouse liver microsomes assessed as half life preincubated with NADPH for 10 mins followed by compound addition and measured upto 30 mins by LC-MS/MS analysis; format: ADME, Microsome; settings: time < 40 min
[12] = Metabolic stability in human liver microsomes assessed as half life preincubated with NADPH for 10 mins followed by compound addition and measured upto 30 mins by LC-MS/MS analysis; format: ADME, Microsome; settings: time < 40 min
Zika virus [13] = assay: Antiviral activity against ZIKV infected in HUVECs assessed as reduction in NS5 protein level at 1 uM measured after 48 hrs by Western blot analysis; format: functional, organism-based; settings: HUVEC

Clc1ccc(N2CCN(Cc3cc(N4CC5CN(Cc6ccccc6)CC5C4)ccn3)CC2)cc1 (stereo not drawn)
EC50 (Zika virus [1]): 2.01 µM
CC50 at 48 h [2]: > 50 µM
selectivity ratio [3]: > 25

CN1CCC2(CC1)CCN(c1ccnc(CN3CCN(c4ccc(C(F)(F)F)cc4)CC3)c1)C2
EC50 (Zika virus [1]): 2.18 µM
CC50 at 48 h [2]: 30.4 µM
selectivity ratio [3]: 14

Cc1ccc(N2CCN(Cc3cc(N(C)CCN(C)C)ccn3)CC2)cc1
inhibition at 5 µM (Zika virus [4]): < 10%
viability, % of control at 48 h, 5 µM [5]: 101%

Clc1ccc(N2CCN(Cc3cc(N4CCC5(CCCN5Cc5ccccc5)C4)ccn3)CC2)cc1 (stereo not drawn)
inhibition at 5 µM (Zika virus [4]): 49%
viability, % of control at 48 h, 5 µM [5]: 91%

CN1CCCN(c2ccc(C(F)(F)F)c(CN3CCN(c4ccc(C(F)(F)F)cc4)CC3)c2)CC1
EC50 (Zika virus [1]): 0.93 µM
CC50 at 48 h [2]: 9.89 µM
selectivity ratio [3]: 11

Cc1ccc(N2CCN(Cc3cc(N4CCCN(C)CC4)ccn3)CC2)cc1
inhibition at 5 µM (Zika virus [4]): < 10%
viability, % of control at 48 h, 5 µM [5]: 105%

CN(C)CCN(C)c1ccnc(CN2CCN(c3ccc(C(F)(F)F)cc3)CC2)c1
inhibition at 5 µM (Zika virus [4]): 33%
viability, % of control at 48 h, 5 µM [5]: 103%

CN(C)CCN(C)CCN(C)c1ccnc(CN2CCN(c3ccc(Cl)cc3)CC2)c1
EC50 (Zika virus [1]): 0.87 µM
CC50 at 48 h [2]: > 50 µM
selectivity ratio [3]: > 58

CN1CC2CN(c3ccnc(CN4CCN(c5ccc(Cl)cc5)CC4)c3)CC2C1 (stereo not drawn)
EC50 (Zika virus [1]): 1.22 µM
CC50 at 48 h [2]: > 50 µM
selectivity ratio [3]: > 41

Cc1ccc(N2CCN(Cc3cc(N(C)CCN(C)CCN(C)C)ccc3C(F)(F)F)CC2)cc1
inhibition at 5 µM (Zika virus [4]): < 10%
viability, % of control at 48 h, 5 µM [5]: 98%

Clc1ccc(N2CCN(Cc3cc(N4CCC5(CCN(Cc6ccccc6)CC5)C4)ccn3)CC2)cc1
EC50 (Zika virus [1]): 0.15 µM
CC50 at 48 h [2]: 20.7 µM
selectivity ratio [3]: 138

CN1CCN(c2ccnc(CN3CCN(c4ccc(Cl)cc4)CC3)c2)CC1
EC50 (Zika virus [1]): 1.46 µM
CC50 at 48 h [2]: > 50 µM
selectivity ratio [3]: > 34

CN(C)CCN(C)c1ccc(C(F)(F)F)c(CN2CCN(c3ccc(C(F)(F)F)cc3)CC2)c1
EC50 (Zika virus [1]): 2.93 µM
CC50 at 48 h [2]: 14.7 µM
selectivity ratio [3]: 5

Cc1ccc(N2CCN(Cc3cc(N4CCCN5CCCC5C4)ccn3)CC2)cc1 (stereo not drawn)
inhibition at 5 µM (Zika virus [4]): < 10%
viability, % of control at 48 h, 5 µM [5]: 100%

CN(C)CCN(C)c1ccc(C(F)(F)F)c(CN2CCN(c3ccc(Cl)cc3)CC2)c1
EC50 (Zika virus [1]): 1.13 µM
CC50 at 48 h [2]: 22.4 µM
selectivity ratio [3]: 20

NC(=O)c1ncn([C@@H]2O[C@H](CO)[C@@H](O)[C@H]2O)n1 [RIBAVIRIN]
EC50 (Zika virus [1]): 2.55 µM
CC50 at 48 h [2]: > 150 µM
selectivity ratio [3]: > 59

Cc1ccc(N2CCN(Cc3cc(N4CCCN(C)CC4)ccc3C(F)(F)F)CC2)cc1
inhibition at 5 µM (Zika virus [4]): < 10%
viability, % of control at 48 h, 5 µM [5]: 105%

CN(C)CCN(C)c1ccc(C(F)(F)F)c(CN2CCN(c3ccncc3)CC2)c1
inhibition at 5 µM (Zika virus [4]): < 10%
viability, % of control at 48 h, 5 µM [5]: 107%

CN1CCC2(CC1)CCN(c1ccc(C(F)(F)F)c(CN3CCN(c4ccc(C(F)(F)F)cc4)CC3)c1)C2
EC50 (Zika virus [1]): 0.59 µM
CC50 at 48 h [2]: 2.27 µM
selectivity ratio [3]: 4

CN(C)CCN(C)c1ccnc(CN2CCN(c3ccc(Cl)cc3)CC2)c1
EC50 (Zika virus [1]): 0.95 µM
CC50 at 48 h [2]: > 50 µM
selectivity ratio [3]: > 52

CN1CC2(CCN(c3ccnc(CN4CCN(c5ccc(Cl)cc5)CC4)c3)C2)C1
EC50 (Zika virus [1]): 0.82 µM
CC50 at 48 h [2]: > 50 µM
selectivity ratio [3]: > 61
Activity (Zika virus [6]): Dose-Dependent Effect
Activity (Zika virus [7]): Active
Activity (Zika virus [8]): Active
Activity (Zika virus [9]): inactive
Activity (Zika virus [10]): inactive
EC50 (Human coronavirus OC43): 2.2 µM
EC50 (Influenza A virus): 2.6 µM
Activity (HEK-293T): Toxic
half-life [11]: 1.4 h
half-life [12]: > 1.53 h

CN(C)CCN(CCN(C)C)c1ccnc(CN2CCN(c3ccc(C(F)(F)F)cc3)CC2)c1
inhibition at 5 µM (Zika virus [4]): < 10%
viability, % of control at 48 h, 5 µM [5]: 104%

Cc1ccc(N2CCN(Cc3cc(N4CCC5(CCN(C)CC5)C4)ccn3)CC2)cc1
inhibition at 5 µM (Zika virus [4]): < 10%
viability, % of control at 48 h, 5 µM [5]: 100%

C#C[C@@]1(O)[C@H](O)[C@@H](CO)O[C@H]1n1ccc2c(N)ncnc21
Activity (Zika virus [13]): Active
Activity (Zika virus [7]): inactive
Activity (Zika virus [9]): Active

CN(C)CCN(C)CCN(C)c1ccc(C(F)(F)F)c(CN2CCN(c3ccncc3)CC2)c1
EC50 (Zika virus [1]): 0.39 µM
CC50 at 48 h [2]: > 50 µM
selectivity ratio [3]: > 128
Activity (Zika virus [6]): Dose-Dependent Effect
Activity (Zika virus [7]): Active
Activity (Zika virus [8]): Active
Activity (Zika virus [9]): inactive
Activity (Zika virus [10]): inactive
EC50 (Human coronavirus OC43): 2.28 µM
EC50 (Influenza A virus): 2.69 µM
Activity (HEK-293T): Toxic
half-life [11]: 2.31 h
half-life [12]: > 1.53 h

CN1CCC2(CC1)CCN(c1ccnc(CN3CCN(c4ccc(Cl)cc4)CC3)c1)C2
EC50 (Zika virus [1]): 0.59 µM
CC50 at 48 h [2]: 31.5 µM
selectivity ratio [3]: 54

CN(C)CCN(C)c1ccc(C#N)c(CN2CCN(c3ccc(Cl)cc3)CC2)c1
EC50 (Zika virus [1]): 2.19 µM
CC50 at 48 h [2]: 19.8 µM
selectivity ratio [3]: 9
half-life [11]: 0.548 h
half-life [12]: > 1.53 h

Cc1ccc(N2CCN(Cc3cc(N(C)CCN(C)C)ccc3C(F)(F)F)CC2)cc1
inhibition at 5 µM (Zika virus [4]): < 10%
viability, % of control at 48 h, 5 µM [5]: 103%

CN1CCCN(c2ccnc(CN3CCN(c4ccc(C(F)(F)F)cc4)CC3)c2)CC1
EC50 (Zika virus [1]): 1.32 µM
CC50 at 48 h [2]: > 50 µM
selectivity ratio [3]: 66
